Data from a melting point compilation (Tetko et al.; mined from patent text by program, amines drawn as free bases though some values may be those of a salt).

| Structure (SMILES) | melting point |
| --- | --- |
| C=CCNC(=O)Nc1ccc([N+](=O)[O-])cc1O | 135 to 136 °C |
| CC#CCOc1ccc(C=O)cc1OC | 90 to 92 °C |
| O=C(O)CON=CCCl | 66 to 68 °C |
| Clc1nccnc1OCCOc1cccc(Br)c1 | 57 to 58 °C |
| COc1cccc(CC(=O)O)c1OCCCc1cn(-c2ccc(C(F)(F)F)nn2)nc1C(C)(C)C | 131 to 132 °C |
| CC(C)Oc1cc(CCCO)n(Cc2ccc(Cl)cc2Cl)n1 | 51 to 52 °C |
| c1cnc2scc(Nc3ccncc3)c2c1 | 200 to 204 °C |
| COC(=O)C1=C[C@@H](OC(C)C)[C@H](NC(C)=O)[C@@H](CC2CO2)C1 (stereo partly drawn) | 130 to 131 °C |
| c1ccc(N2CCN(CCc3nc4ccccc4[nH]3)CC2)cc1 | 201 to 203 °C |
| OCc1ncc(-c2cccs2)s1 | 67 to 68 °C |
| FC(F)(F)c1cc(-c2ccc(Cl)c(Cl)c2)nc2c(-c3cccnc3)cnn12 | 224 °C |
| CN(C)C=CC(=O)C(=O)c1ccccc1 | 88 °C |
| COc1ccc([N+](=O)[O-])cc1C=O | 89 to 90 °C |
| CC(C)(C)c1cc(-n2nc3ccccc3n2)c(O)c(C(C)(C)C)c1 | 150 to 152 °C |
| Cc1nc(-c2ccc(NCC(=O)O)cc2)no1 | 178 to 181 °C |
| CCCCS(=O)(=O)c1c(-c2ccccc2)nn(C)c1-c1ccccc1 | 92.5 to 93 °C |
| COCCC(=O)OC[C@@H](O)[C@@H]1CC(c2ccc(-c3ccc(N4C[C@H](Cn5ccnn5)OC4=O)cc3F)cn2)=NO1 | 130 °C |
| N=C(Nc1cccc(NC(=O)CNC(=O)OCc2ccccc2)c1)N1CCCC1 | 81 to 82 °C |
| OC(CNC1CC1)c1cccc(F)c1 (stereo not drawn) | 57.8 to 60 °C |
| COc1ccc(C(NCCCc2ccccc2)c2cccc(Nc3c(N)c(=O)c3=O)c2)cc1 (stereo not drawn) | 178 to 180 °C |
| Cc1ccc(-c2nc(Cl)cc(N3CCN(C)CC3)n2)cc1 | 93 to 95 °C |
| O=C(SCC(Cc1ccccc1)C(=O)O)c1ccccc1 (stereo not drawn) | 99 to 100 °C |
| Cc1cc(Cl)cc(C(=O)NC2(C)CSC2)c1NC(=O)c1cc(C(F)(F)F)nn1-c1ncccc1Cl | 238 to 241 °C |

| Structure (SMILES) | melting point |
| --- | --- |
| Cc1sc(N)c(C(=O)c2cccc(C(F)(F)F)c2)c1C | 103 to 105 °C |
| O=S(=O)(Nc1cnc(-n2ccnc2)nc1NCc1ccc(Br)cc1)c1ccc(Cl)cc1 | 183 to 185 °C |
| Cc1cc(NC(=O)C(C)(O)COc2cccc(F)c2)ccc1[N+](=O)[O-] (stereo not drawn) | 83 to 86 °C |
| CCC(=O)S(=O)(=O)c1ccc(C=C(C)c2ccc3c(c2)C(C)(C)CCC3(C)C)cc1 | 140 to 141 °C |
| COc1ccc2nc(SC3CCCc4ccc(O)nc43)[nH]c2c1 (stereo not drawn) | 217 to 218 °C |
| COc1cc2c(c(Cl)c1Cl)C(=O)C(C)(C1CCCC1)C2 (stereo not drawn) | 109 to 112 °C |
| CCc1cc(Br)cc2nc3c(=O)[nH][nH]c(=O)c3c(O)c12 | 208 to 210 °C |
| O=C(Nc1ccc(OC(F)(F)C(F)F)cc1)N1CC(c2ccccc2)C(c2ccc(OC(F)F)cc2)=N1 (stereo not drawn) | 132 to 135 °C |
| CCCc1nc(C#N)c(C#N)nc1Oc1ccccc1 | 130 to 132 °C |
| CCN1CCC(=O)N(c2ccccc2F)C1=S | 101 to 104 °C |
| CN(C)C1CCc2[nH]c3cc(O)ccc3c2C1 (stereo not drawn) | 286 to 288 °C |
| COc1ccc2c(=O)cc[nH]c2c1O | 228 to 230 °C |
| CSc1cc(C)c(O)cc1C | 98 to 99 °C |
| CCNc1nc(CC)c(C(=O)c2ccc(N)c([N+](=O)[O-])c2)s1 | 210 to 212 °C |
| COc1cc(C)c2c(c1)-c1c([nH]c3ccccc13)C2 | 208 °C |
| CN1CCC(OC2c3ccccc3CC(C)(C)n3cc(-c4ccccc4)nc32)CC1 (stereo not drawn) | 85 °C |
| CCOC(=O)C1CCNC1=O (stereo not drawn) | 74.5 to 75.5 °C |
| N#CC1(CCNC(=O)C(Cl)Cl)CCCCC1 | 109 to 114 °C |
| O=C1CNc2cc(Br)c(F)cc2N1 | 214 to 216 °C |
| CC(=O)Nc1cnc2cccc(Oc3cc(-c4ccc(C(F)(F)F)cc4)ncn3)c2n1 | 237 °C |
| CN1C(=O)C(NC(=S)Nc2ccccc2)N=C(c2ccccc2)c2ccccc21 (stereo not drawn) | 209 to 211 °C |
| NC(=O)C1CCN(C(=O)CNC(=O)CNC(=O)CN2CCCC2=O)CC1 | 225 to 227 °C |
| CCOc1cc(-c2cc(C(F)(F)F)n3ncc(C(=O)Nc4cccc(S(=O)(=O)NC5CC5)c4)c3n2)ccc1C(F)(F)F | 225 °C |

| Structure (SMILES) | melting point |
| --- | --- |
| CCNC(=O)c1sc(C)c(C)c1[Si](C)(C)C | 77 to 80 °C |
| O=C(CCN1CCCC1)Nc1ccc2c(c1)C(=O)c1cc(NC(=O)CCN3CCCC3)ccc1C2=O | 233 °C |
| COc1cc(-c2cnc3[nH]cc(C(=O)C(=O)N(C)C)c3n2)cc(OC)c1OC | 227 to 228 °C |
| CC(CC(=O)O)c1ccc(-c2ccc(F)cc2F)cc1 (stereo not drawn) | 109 to 110 °C |
| Cc1cccc(C)c1OC(C)C(=O)OC1CC(O)C=C2C=CC(C)C(CCC3CC(O)CC(=O)O3)C21 (mixture of isomers) | 85 to 88 °C |
| CC(C)c1ccc(NN)c(Cl)c1 | 64 to 66 °C |
| CCOC(=O)c1cn(CC2CC2)c2cc(-n3cccc3)c(F)cc2c1=O | 125 to 127 °C |
| O=C(CCc1ccc(CNCc2ccccc2)cc1)Nc1ccc(-c2ccc(Cl)cc2)cc1 | 176 °C |
| COC(=O)c1nc(C)n2c1CNC(c1ccccc1)c1cc(Cl)ccc1-2 (stereo not drawn) | 233 to 235 °C |
| O=C(N[C@H]1CCCNC1=O)OCc1ccccc1 | 100 to 102 °C |
| Cc1ncccc1NC(=NC#N)NC(NC(=O)Cc1ccc(F)c(F)c1)C(C)(C)C (stereo not drawn) | 58 to 60 °C |
| CCCCOC(=O)CNC(=O)c1ncccc1OC | 60 to 62 °C |
| O=C1N(Cc2ccc(C(F)(F)F)o2)c2ccccc2C12COc1cc3c(cc12)OCO3 (stereo not drawn) | 103 to 105 °C |
| Oc1ccc2nc(-c3ccc(O)c(F)c3)cc(-c3ccc(F)cc3)c2c1 | 240 to 243 °C |
| N#CCc1cc(Cl)cc2c(-c3ccc(Cl)cc3)onc12 | 187 to 190 °C |
| COc1ccc(-c2nc(N3CCOCC3)c3c(C)c(C#N)sc3n2)cc1 | 204 to 206 °C |
| CC(=O)N(C)c1cccc(-c2ccnc3c(C(=O)c4ccco4)cnn23)c1 | 210 to 212 °C |
| CC1(C)CCC(C)(C)c2cc(-c3cc(-c4ccc(C(=O)O)cc4)ccc3CC(O)CO)ccc21 (stereo not drawn) | 145 °C |
| CCCn1c(=O)c2c(NC)n[nH]c2n(Cc2ccccc2Cl)c1=O | > 300 °C |
| COc1c(C(=O)Nc2ccc(OCC(C)(C)C)c(C#N)c2)cnn1-c1ccc(F)cc1 | 120 to 123 °C |
| N#CCc1cccc2c(-c3ccc(C(F)(F)F)cc3)nccc12 | 122 to 123 °C |
| CC(=O)SCC(=Cc1cc(F)cc(F)c1)C(=O)NCCC(=O)OCc1ccccc1 | 82 °C |

The remaining lines, values ahead:

| melting point | Structure (SMILES) |
| --- | --- |
| 140 to 142 °C | CN(c1ccc(C(C(F)(F)Cl)C(F)(F)Cl)cc1)S(C)(=O)=O |
| > 285 °C | CS(=O)(=O)c1ccc(-n2c(-c3ccc(F)cc3)nc(O)c(C#N)c2=O)cc1 |
| 100 to 102 °C | CCCCNC(=O)c1ccc(-c2ccc3nnn(Cc4ccc5ncccc5c4)c3n2)cc1F |
| 156 to 158 °C | COc1ccc(C(=O)NCCCC(=O)O)cc1OCc1ccccc1 |
| 166 to 168 °C | CCCCc1c(CN2C(=O)c3ccccc3C2=O)c(CC(C)C)nc2ccc(OCc3ccccc3)cc12 |
| 289 to 292 °C | Cc1[nH]c(=O)[nH]c1C(=O)c1ccc(F)cc1 |
| 212 to 215 °C | CC1(C)CC(=O)C(C(=O)Nc2ccc(Cl)c(Cl)c2)C(=O)O1 (stereo not drawn) |
| 202 to 205 °C | COc1cccc(-c2ccc3[nH]c4c(ccc5cc[nH]c54)c3c2)c1 |
| 123 to 124 °C | CC(C)c1c2n(c(=O)c3ccccc13)CCCS2 |
| 191 to 194 °C | CN1Cc2cc(Cl)ccc2C(=O)c2cc(CC(=O)O)ccc21 |
| 37 °C | CCOP(=O)(OCC)C(O[Si](C)(C)C)c1ccc(OC)c(C)c1 (stereo not drawn) |
| 150 to 152 °C | O=C1C2C=CC(O2)C(=O)N1c1ccccc1 |
| 187 °C | CC1=C(CCN(O)C(N)=O)c2cc(F)ccc2/C1=C\c1ccc(S(C)(=O)=O)cc1 |
| 146 to 147 °C | O=C1CC2CSc3ccccc3C2=NN1c1ccc(Cl)cc1 (stereo not drawn) |
| 116 to 118 °C | CN1CCN(c2nc(NCc3ccco3)nc(Nc3ccc(O)cc3)n2)CC1 |
| 165 to 175 °C | O=C(O)CCc1cc2cc(Cl)ccc2n1S(=O)(=O)c1cccc2ccccc12 |
| 239 to 242 °C | O=C(O)c1nn(-c2ccc(Cl)cc2Cl)c2c1CCc1c(Br)csc1-2 |
| 132 to 135 °C | COc1ccc(N(S(C)(=O)=O)S(C)(=O)=O)cc1CN1CCC(=O)C(C(c2ccccc2)c2ccccc2)C1 (stereo not drawn) |

| melting point | Structure (SMILES) |
| --- | --- |
| 118 to 121 °C | O=C(O)COc1cccc2c1CC(SCc1ccccc1)c1sc(-c3ccc4ccccc4c3)nc1-2 (stereo not drawn) |
| 130 to 133 °C | Nc1ccccc1SCn1ccccc1=O |
| 204 to 205 °C | CCOc1cc(C=C2CCN(C(N)=O)C2=O)ccc1O |
| 82 to 83 °C | FCCCCNc1cn(-c2cccnc2)nc1Cl |
| 230 to 231 °C | Cc1cc(C#N)cc(-c2ccc3c(c2)C(C)(C)OC(=S)N3)c1 |
| 253 to 258 °C | O=C(NCCCl)Nc1ccc2cn[nH]c2c1 |
| 111 to 113 °C | COCCOc1ccc(CCCNS(=O)(=O)c2ccc(Cl)cc2)c(Oc2ncc(C(F)(F)F)cc2Cl)c1 |
| 164 to 165 °C | CCC(=O)Nc1ccc2oc3c(c2c1)CCCC3 |
| 300 °C | COc1ccc(Cn2c(C)cc3c(=O)[nH][nH]c(=O)c32)cc1 |
| 221 to 223 °C | O=C(Nc1cccc(NC(=O)C(F)(F)F)c1)Nc1ccc(Cl)c(Cl)c1 |
| 99 to 120 °C | O=c1ccc2ccc(OCCCN3CCC(C(O)(c4ccc(F)cc4)c4ccc(F)cc4)CC3)cc2o1 |
| 237 to 238 °C | O=[N+]([O-])c1ccc(C=Nc2c3c(nc4ccccc24)CCCC3)cc1 |
| 113 to 115 °C | CCCC(=O)OC1=C(c2ccc(OC)cc2)S(=O)c2ccccc2-n2cccc21 (stereo not drawn) |
| 75 to 78 °C | COc1ccc(C(=O)C(NCCc2ccc(OC)c(OC)c2Cl)SC)cc1 (stereo not drawn) |
| 149 to 150 °C | N#CC(S)(CCC(=O)O)C1=NCCc2ccccc21 (stereo not drawn) |
| 59.5 to 60 °C | COc1cc2cc(C3CCCC3)sc2c(Cl)c1Cl |
| 272 to 276 °C | Nc1c(F)c(F)c(F)c(F)c1S(=O)(=O)O |
